In publication PMC8841457 (Clinical and Translational Science, 2021):

Legend:
[1] = tested on: healthy recreational polydrug users; assay: Drug Liking VAS, human abuse potential study; assay type: in vivo; settings: for Drug Liking VAS Emax LS mean difference: mixed-effect model
[2] = tested on: healthy recreational polydrug users; assay: Drug Similarity VAS at 8 h postdose; assay type: in vivo, human; settings: pentazocine 0.5 mg/kg i.v.
[3] = tested on: healthy recreational polydrug users; assay: Pupillometry; assay type: in vivo, human; settings: pentazocine 0.5 mg/kg i.v.; 8-h postdose period
[4] = tested on: healthy recreational polydrug users; assay: Treatment-emergent adverse events; assay type: in vivo, human; settings: pentazocine 0.5 mg/kg single i.v., n = 40; safety population
[5] = Plasma pharmacokinetics after single i.v. dose; settings: pentazocine 0.5 mg/kg single i.v., n = 40
[6] = tested on: healthy recreational polydrug users; assay: Drug effect questionnaire; settings: pentazocine 0.5 mg/kg and difelikefalin 5 and 15 mcg/kg i.v.; unipolar 0-100 VAS
[7] = tested on: healthy recreational polydrug users; assay: Global retrospective assessments at 8 h postdose; settings: pentazocine 0.5 mg/kg i.v.

Question: For `CC(C)=CCN1CCC2(C)c3cc(O)ccc3CC1C2C` (centres unmarked) [Pentazocine, pentazocine], which “Drug Liking VAS Emax LS mean difference” value ([1]; pentazocine 0.5 mg/kg i.v. vs difelikefalin 5 mcg/kg i.v., completer set N = 39) is on record?
Answer: The value was 21.95.

Question: And the “Drug Liking VAS Emax LS mean difference” value ([1]; pentazocine 0.5 mg/kg i.v. vs difelikefalin 15 mcg/kg i.v., completer set N = 39)?
Answer: Its value is 20.92.

Question: What about the “Drug Liking VAS Emax LS mean difference” value ([1]; pentazocine 0.5 mg/kg i.v. vs placebo, completer set N = 39) of the same compound?
Answer: Its value is 35.50.

Question: And the “Mean Drug Liking VAS scores” value ([1]; pentazocine 0.5 mg/kg i.v., over the first 3 h)?
Answer: Its value is greater than 60 points.

Question: And the “Drug Liking VAS Emax, median (min, max)” value ([1]; pentazocine 0.5 mg/kg single i.v., completer set N = 39)?
Answer: Its value is 91.0 (49, 100).

Question: And the “Drug Similarity VAS, median, cannabinoids, hallucinogens, or stimulants” value ([2]; unipolar 0-100)?
Answer: The value was no more than 2.0.

Question: And the “Drug Similarity VAS, median, benzodiazepines” value ([2]; unipolar 0-100, n=8)?
Answer: Its value is 22.5.

Question: And the “Drug Similarity VAS, median, opioids” value ([2]; unipolar 0-100, n=38)?
Answer: The value was 65.0.

Question: What about the “mean Emax reduction in pupil diameter from baseline (predose)” value [3] of the same compound?
Answer: The value was 2.5 mm.

Question: What about the “Any TEAE, subjects” value [4] of the same compound?
Answer: The value was 13 (32.5) n (%).

Question: What about the “Any serious TEAE, subjects” value [4] of the same compound?
Answer: The value was 0 n (%).

Question: And the “Any severe TEAE, subjects” value [4]?
Answer: Its value is 0 n (%).

Question: And the “Discontinuation due to TEAE, subjects” value [4]?
Answer: Its value is 1 (2.5) n (%).

Question: And the “TEAE Abdominal pain upper, subjects” value [4]?
Answer: Its value is 0 n (%).

Question: And the “TEAE Abdominal pain, subjects” value [4]?
Answer: The value was 0 n (%).

Question: What about the “TEAE Chills, subjects” value [4] of the same compound?
Answer: Its value is 2 (5.0) n (%).

Question: And the “TEAE Constipation, subjects” value [4]?
Answer: The value was 1 (2.5) n (%).

Question: And the “TEAE Dizziness, subjects” value [4]?
Answer: The value was 2 (5.0) n (%).

Question: What about the “TEAE Dyspepsia, subjects” value [4] of the same compound?
Answer: The value was 0 n (%).

Question: What about the “TEAE Groin pain, subjects” value [4] of the same compound?
Answer: Its value is 0 n (%).

Question: And the “TEAE Headache, subjects” value [4]?
Answer: Its value is 4 (10.0) n (%).

Question: What about the “TEAE Hot flush, subjects” value [4] of the same compound?
Answer: Its value is 3 (7.5) n (%).

Question: What about the “TEAE Hypoesthesia, subjects” value [4] of the same compound?
Answer: The value was 1 (2.5) n (%).

Question: And the “TEAE Nausea, subjects” value [4]?
Answer: The value was 5 (12.5) n (%).

Question: What about the “TEAE Vomiting, subjects” value [4] of the same compound?
Answer: The value was 5 (12.5) n (%).

Question: And the Cmax ([5]; human plasma, tandem MS, mean (SD))?
Answer: Its Cmax is 296.0 (197.7) ng/ml.

Question: What about the AUC0-t ([5]; mean (SD)) of the same compound?
Answer: The AUC0-t was 487.4 (133.5) h*ng/ml.

Question: And the V d ([5]; mean (SD))?
Answer: The V d was 4280 (1079.8) ml/kg.

Question: And the “t 1/2” value ([5]; mean (SD))?
Answer: The value was 3.7 (1.2) h.

Question: What about the Tmax ([5]; median [range]) of the same compound?
Answer: Its Tmax is 0.1 [0.1, 0.8] h.

Question: And the “Bad Effects VAS Emax, scores overall” value [6]?
Answer: Its value is less than 20 points.

Question: And the PVAQ median value ([7]; 8 h postdose)?
Answer: Its PVAQ median value is 10.00 $.

Question: And the PVAQ mean value ([7]; 8 h postdose, $0-$100 scale)?
Answer: Its PVAQ mean value is 9.60 $.

Question: And the “Mean 8-h score, Overall Drug Liking VAS” value ([7]; bipolar VAS, 50 neutral)?
Answer: Its value is “greater than or equal to 69 points”.

Question: What about the “Mean 8-h score, Take Drug Again VAS” value ([7]; bipolar VAS, 50 neutral) of the same compound?
Answer: Its value is “greater than or equal to 69 points”.
